From publication PMC7734336, “Riproximin Exhibits Diversity in Sugar Binding, and Modulates some Metastasis-Related Proteins with Lectin like Properties in Pancreatic Ductal Adenocarcinoma” (Frontiers in Pharmacology, 2020)

How the values were obtained:
Riproximin (Rpx) [1] = molecular target: T1, Riproximin (Rpx) (Ximenia americana, UniProt Q2PA54); assay: 1H NMR line broadening and waterLOGSY; format: binding; details: 298 K; pyranose anomers observed separately in one sample
Riproximin (Rpx) [2] = molecular target: T1, Riproximin (Rpx); assay: waterLOGSY NMR; format: binding; details: 298 K; pyranose anomers observed separately in one sample

T1 sequence (Q2PA54 53-325 limits assumed): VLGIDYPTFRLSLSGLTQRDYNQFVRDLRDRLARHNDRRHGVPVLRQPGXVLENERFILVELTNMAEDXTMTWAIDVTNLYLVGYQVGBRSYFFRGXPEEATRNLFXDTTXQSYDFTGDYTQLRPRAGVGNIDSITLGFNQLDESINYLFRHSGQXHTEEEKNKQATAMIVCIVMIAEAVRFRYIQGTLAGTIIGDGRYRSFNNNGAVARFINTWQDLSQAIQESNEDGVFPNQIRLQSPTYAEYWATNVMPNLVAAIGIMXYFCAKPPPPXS
T1 sequence (Q2PA54 334-601 limits assumed): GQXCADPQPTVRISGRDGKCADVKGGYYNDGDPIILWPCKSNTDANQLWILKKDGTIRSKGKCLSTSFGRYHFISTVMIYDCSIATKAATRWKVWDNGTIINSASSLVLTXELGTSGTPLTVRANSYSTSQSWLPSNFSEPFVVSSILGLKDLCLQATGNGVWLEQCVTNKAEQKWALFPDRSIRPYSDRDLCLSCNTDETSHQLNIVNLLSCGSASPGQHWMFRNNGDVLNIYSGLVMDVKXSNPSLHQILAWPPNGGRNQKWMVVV

SMILES | 1H NMR line broadening and waterLOGSY (Riproximin (Rpx) [1]) | waterLOGSY NMR (Riproximin (Rpx) [2])
OC[C@H]1OC(O)[C@H](O)[C@@H](O)[C@H]1O (mixture of isomers) [D-galactose] | The affinities of both D-galactose and L-fucose for Rpx were moderate as evident by clear | –
C[C@@H]1OC(O)[C@@H](O)[C@H](O)[C@@H]1O (mixture of isomers) [L-fucose] | The methyl doublet signals of L-fucose show clear line broadening due to binding to Rpx | –
C[C@@H]1OC(O)[C@H](O)[C@H](O)[C@H]1O (mixture of isomers) [L-rhamnose] | – | water-LOGSY spectrum confirmed nevertheless the very weak binding of both, the α- and β-anomers of l-rhamnose
